Data on 1 compound can be found in ChEMBL document CHEMBL6121066, “Structure-Activity Relationship Studies of DNA Methyltransferase 1 Monovalent Degraders” (J Med Chem, 2025).

The test system of assay [1] is HCT-116. Briefly: Downregulation of DNMT1 protein level in human HCT-116 cells at 1 uM incubated for 12 hrs by MS-based global proteomic analysis. Type of assay: functional, cell-based.
The target in assay [2] is Histone-lysine N-methyltransferase 2A (Homo sapiens) (UniProt Q03164). Description: Inhibition of human MLL1 using nucleosomes and SAM as substrate at 1 uM by radioisotope-based MT HotSpot assay relative to control.
For assay [3], the system named is MDA-MB-468. Briefly: Antiproliferative activity against human MDA-MB-468 cells assessed as inhibition of cell growth upto 10 uM incubated for 7 days by CCK8 assay relative to control. The format is functional. Particulars: time 7 day, up to 10 µM. For orientation: Formazan colour is commonly taken as a measure of viable cells.
For assay [4], the system named is HCT-116. Description: Induction of molecular glue effect mediated DNMT3B degradation in human HCT-116 cells assessed as reduction in DNMT3B protein level at 500 nM incubated for 24 hrs by Western blot analysis. The format is cell-based. For orientation: Immunoblotting shows a protein as a band on a membrane.
In assay [5] the test system is HCT-116. Description: Induction of molecular glue effect mediated DNMT1 degradation in human HCT-116 cells transfected with Smurf2 siRNA assessed as reduction in DNMT1 protein level at 100 nM measured after 24 hrs by Western blot analysis. The format is cell-based.
Assay [6] concerns the target T1, Histone-arginine methyltransferase CARM1 (Homo sapiens) (UniProt Q86X55).
T1 sequence (whole entry): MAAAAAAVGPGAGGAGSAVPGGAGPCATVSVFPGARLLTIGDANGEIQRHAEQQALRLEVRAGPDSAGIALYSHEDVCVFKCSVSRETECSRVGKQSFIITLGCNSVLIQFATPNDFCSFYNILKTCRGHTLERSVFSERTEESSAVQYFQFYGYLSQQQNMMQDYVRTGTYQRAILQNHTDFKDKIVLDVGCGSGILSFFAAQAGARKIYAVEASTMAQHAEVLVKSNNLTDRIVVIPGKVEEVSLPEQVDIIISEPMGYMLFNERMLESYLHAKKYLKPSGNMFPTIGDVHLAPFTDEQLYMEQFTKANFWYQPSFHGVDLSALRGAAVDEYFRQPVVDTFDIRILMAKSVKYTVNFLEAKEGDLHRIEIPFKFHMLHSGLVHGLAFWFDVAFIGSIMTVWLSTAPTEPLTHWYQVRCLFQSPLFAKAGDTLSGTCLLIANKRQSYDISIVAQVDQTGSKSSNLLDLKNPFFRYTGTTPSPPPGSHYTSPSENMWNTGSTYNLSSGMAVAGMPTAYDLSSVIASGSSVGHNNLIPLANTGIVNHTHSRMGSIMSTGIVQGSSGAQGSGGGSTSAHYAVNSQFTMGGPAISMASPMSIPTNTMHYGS
Briefly: Inhibition of human PRMT4 using histone H3 and SAM as substrate at 1 uM by radioisotope-based MT HotSpot assay relative to control.

Assay [7] concerns MDA-MB-468. Briefly: Induction of molecular glue effect mediated DNMT1 degradation in human MDA-MB-468 cells assessed as reduction in DNMT1 protein level at 100 nM preincubated with MG132 for 2 hrs followed by compound addition and measured after 24 hrs by Western blot analysis. Type of assay: cell-based.
Another assay relates to NCI-H1299. Briefly: Induction of molecular glue effect mediated DNMT1 degradation in human NCI-H1299 cells assessed as reduction in DNMT1 protein level at 100 nM preincubated with MLN4924 for 2 hrs followed by compound addition and measured after 24 hrs by Western blot analysis. Type of assay: cell-based.
Assay [8] relates to HCT-116. Briefly: Antiproliferative activity against human HCT-116 cells assessed as inhibition of cell growth upto 15 uM incubated for 7 days by CCK8 assay relative to control. The format is functional. The conditions noted are these: time 7 day, up to 15 µM.
Assay [9] concerns the target T2, Histone-lysine N-methyltransferase EHMT2 (Homo sapiens) (UniProt Q96KQ7).
T2 sequence (whole entry): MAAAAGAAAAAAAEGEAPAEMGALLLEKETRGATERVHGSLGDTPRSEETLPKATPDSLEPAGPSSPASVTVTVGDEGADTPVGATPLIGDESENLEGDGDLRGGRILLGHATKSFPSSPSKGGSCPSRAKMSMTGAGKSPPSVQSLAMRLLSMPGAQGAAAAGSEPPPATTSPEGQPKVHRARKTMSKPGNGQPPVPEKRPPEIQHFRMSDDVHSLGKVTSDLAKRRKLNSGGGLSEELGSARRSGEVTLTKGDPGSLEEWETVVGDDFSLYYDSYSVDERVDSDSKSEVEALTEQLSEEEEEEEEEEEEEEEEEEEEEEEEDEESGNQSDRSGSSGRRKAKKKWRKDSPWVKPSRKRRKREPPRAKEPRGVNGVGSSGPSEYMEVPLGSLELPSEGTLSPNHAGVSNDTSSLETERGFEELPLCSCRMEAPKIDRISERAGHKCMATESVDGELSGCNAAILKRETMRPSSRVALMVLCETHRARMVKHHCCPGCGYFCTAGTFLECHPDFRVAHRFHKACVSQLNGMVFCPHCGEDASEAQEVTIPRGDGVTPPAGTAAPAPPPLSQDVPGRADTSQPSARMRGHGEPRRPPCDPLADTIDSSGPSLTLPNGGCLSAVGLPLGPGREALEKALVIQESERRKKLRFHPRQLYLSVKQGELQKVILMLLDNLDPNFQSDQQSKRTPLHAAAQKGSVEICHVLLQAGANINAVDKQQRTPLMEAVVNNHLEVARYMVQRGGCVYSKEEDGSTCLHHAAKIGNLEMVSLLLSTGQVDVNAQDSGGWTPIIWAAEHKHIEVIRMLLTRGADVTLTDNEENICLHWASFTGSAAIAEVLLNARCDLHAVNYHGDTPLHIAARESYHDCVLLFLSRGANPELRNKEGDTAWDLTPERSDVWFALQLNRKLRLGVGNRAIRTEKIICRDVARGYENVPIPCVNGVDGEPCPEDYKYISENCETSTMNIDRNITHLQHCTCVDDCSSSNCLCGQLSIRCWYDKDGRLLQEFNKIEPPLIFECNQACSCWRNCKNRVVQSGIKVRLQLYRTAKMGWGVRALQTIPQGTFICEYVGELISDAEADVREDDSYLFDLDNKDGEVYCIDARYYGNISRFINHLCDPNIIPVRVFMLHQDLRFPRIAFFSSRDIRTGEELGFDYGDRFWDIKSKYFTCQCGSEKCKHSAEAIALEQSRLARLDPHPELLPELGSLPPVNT
Description: Inhibition of human G9a using histone H3 and SAM as substrate at 1 uM by radioisotope-based MT HotSpot assay relative to control.

Assay [10] is described as follows: Induction of molecular glue effect mediated DNMT1 degradation in human MDA-MB-468 cells assessed as reduction in DNMT1 protein level incubated for 24 hrs by Western blot analysis. Type of assay: cell-based. Particulars: MDA-MB-468, 24 h.
In assay [11] the test system is HCT-116. Briefly: Induction of molecular glue effect mediated DNMT1 degradation in human HCT-116 cells assessed as reduction in DNMT1 protein level at 100 nM preincubated with lysosome inhibitor CQ for 2 hrs followed by compound addition and measured after 24 hrs by Western blot analysis. The format is cell-based.
Assay [12] has as its system HCT-116. Description: Induction of molecular glue effect mediated DNMT1 degradation in human HCT-116 cells assessed as reduction in DNMT1 protein level by measuring half-life at 500 nM preincubated with cycloheximide for 2 hrs followed by compound administration and measured after 24 hrs by Western blot analysis. Type of assay: cell-based.

Calls of active or inactive are those of the source. The rule behind the calls is not given here.

Chain of Histone-lysine N-methyltransferase 2A (Homo sapiens) (Q03164 1-2718 limits assumed): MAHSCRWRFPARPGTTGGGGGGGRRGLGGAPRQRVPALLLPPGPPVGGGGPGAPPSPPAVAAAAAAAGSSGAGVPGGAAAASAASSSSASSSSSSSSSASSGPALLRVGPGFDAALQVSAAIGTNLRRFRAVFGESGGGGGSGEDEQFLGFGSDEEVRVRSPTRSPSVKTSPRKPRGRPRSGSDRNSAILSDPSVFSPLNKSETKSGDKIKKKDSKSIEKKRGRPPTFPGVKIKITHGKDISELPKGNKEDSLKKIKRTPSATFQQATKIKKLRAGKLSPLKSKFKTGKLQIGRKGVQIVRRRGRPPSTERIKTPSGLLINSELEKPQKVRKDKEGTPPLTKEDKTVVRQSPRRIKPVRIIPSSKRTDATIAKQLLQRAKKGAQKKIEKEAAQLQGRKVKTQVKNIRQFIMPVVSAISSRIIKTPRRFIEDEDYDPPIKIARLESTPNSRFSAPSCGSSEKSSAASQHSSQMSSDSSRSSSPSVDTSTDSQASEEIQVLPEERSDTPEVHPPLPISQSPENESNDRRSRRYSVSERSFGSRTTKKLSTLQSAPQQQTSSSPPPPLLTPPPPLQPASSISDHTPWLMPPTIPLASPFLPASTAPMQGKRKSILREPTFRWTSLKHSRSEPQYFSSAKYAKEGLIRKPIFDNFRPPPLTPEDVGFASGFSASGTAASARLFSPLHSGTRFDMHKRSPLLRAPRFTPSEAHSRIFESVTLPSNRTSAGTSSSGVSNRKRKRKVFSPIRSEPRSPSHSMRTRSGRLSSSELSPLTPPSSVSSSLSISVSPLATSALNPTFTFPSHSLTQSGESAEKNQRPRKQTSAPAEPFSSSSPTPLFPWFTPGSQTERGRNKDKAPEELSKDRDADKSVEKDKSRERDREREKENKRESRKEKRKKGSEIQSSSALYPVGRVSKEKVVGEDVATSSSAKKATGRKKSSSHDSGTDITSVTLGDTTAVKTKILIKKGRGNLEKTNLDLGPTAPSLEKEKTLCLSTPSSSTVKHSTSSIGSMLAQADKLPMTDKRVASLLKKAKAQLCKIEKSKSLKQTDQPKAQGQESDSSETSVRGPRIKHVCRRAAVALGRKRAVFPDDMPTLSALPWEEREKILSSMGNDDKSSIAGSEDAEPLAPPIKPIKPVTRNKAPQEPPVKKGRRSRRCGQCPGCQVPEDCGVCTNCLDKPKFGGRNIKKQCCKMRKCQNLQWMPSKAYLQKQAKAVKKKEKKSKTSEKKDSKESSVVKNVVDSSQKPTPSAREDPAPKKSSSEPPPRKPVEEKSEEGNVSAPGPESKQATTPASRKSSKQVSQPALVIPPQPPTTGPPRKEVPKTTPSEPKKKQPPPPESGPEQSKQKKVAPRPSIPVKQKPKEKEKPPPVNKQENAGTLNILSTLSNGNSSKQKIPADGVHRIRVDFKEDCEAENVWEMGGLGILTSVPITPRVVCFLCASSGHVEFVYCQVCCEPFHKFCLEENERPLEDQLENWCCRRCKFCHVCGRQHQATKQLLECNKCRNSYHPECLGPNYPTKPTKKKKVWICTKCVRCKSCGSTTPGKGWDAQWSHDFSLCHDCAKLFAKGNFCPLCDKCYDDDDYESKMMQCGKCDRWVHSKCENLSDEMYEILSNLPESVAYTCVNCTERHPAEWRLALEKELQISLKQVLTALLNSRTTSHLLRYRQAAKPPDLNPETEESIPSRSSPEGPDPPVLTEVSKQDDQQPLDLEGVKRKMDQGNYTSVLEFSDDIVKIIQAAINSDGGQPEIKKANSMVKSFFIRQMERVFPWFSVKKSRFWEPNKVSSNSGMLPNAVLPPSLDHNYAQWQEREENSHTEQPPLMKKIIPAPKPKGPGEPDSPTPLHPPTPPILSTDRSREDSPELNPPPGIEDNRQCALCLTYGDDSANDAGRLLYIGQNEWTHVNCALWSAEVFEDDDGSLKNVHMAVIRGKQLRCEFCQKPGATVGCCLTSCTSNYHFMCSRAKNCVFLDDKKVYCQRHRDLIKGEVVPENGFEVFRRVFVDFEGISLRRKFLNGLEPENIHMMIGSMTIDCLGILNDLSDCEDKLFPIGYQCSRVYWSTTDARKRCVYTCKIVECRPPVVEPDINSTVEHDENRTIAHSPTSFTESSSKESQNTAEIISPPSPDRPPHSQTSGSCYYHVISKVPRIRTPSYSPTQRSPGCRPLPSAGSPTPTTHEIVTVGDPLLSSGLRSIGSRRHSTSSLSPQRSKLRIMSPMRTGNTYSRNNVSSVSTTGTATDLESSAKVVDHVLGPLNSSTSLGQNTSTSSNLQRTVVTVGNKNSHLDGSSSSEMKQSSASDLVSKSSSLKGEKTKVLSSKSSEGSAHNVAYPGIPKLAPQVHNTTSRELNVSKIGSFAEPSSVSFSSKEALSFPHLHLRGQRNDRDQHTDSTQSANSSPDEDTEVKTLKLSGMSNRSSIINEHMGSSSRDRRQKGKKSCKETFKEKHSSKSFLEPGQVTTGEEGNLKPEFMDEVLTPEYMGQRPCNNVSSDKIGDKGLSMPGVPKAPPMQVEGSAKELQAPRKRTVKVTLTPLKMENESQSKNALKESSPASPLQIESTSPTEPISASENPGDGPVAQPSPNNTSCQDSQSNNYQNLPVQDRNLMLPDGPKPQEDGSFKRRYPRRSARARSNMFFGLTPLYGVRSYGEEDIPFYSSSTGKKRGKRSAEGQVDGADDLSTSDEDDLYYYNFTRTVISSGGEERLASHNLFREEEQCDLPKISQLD
Chain of Histone-lysine N-methyltransferase 2A (Homo sapiens) (Q03164 2719-3969 limits assumed): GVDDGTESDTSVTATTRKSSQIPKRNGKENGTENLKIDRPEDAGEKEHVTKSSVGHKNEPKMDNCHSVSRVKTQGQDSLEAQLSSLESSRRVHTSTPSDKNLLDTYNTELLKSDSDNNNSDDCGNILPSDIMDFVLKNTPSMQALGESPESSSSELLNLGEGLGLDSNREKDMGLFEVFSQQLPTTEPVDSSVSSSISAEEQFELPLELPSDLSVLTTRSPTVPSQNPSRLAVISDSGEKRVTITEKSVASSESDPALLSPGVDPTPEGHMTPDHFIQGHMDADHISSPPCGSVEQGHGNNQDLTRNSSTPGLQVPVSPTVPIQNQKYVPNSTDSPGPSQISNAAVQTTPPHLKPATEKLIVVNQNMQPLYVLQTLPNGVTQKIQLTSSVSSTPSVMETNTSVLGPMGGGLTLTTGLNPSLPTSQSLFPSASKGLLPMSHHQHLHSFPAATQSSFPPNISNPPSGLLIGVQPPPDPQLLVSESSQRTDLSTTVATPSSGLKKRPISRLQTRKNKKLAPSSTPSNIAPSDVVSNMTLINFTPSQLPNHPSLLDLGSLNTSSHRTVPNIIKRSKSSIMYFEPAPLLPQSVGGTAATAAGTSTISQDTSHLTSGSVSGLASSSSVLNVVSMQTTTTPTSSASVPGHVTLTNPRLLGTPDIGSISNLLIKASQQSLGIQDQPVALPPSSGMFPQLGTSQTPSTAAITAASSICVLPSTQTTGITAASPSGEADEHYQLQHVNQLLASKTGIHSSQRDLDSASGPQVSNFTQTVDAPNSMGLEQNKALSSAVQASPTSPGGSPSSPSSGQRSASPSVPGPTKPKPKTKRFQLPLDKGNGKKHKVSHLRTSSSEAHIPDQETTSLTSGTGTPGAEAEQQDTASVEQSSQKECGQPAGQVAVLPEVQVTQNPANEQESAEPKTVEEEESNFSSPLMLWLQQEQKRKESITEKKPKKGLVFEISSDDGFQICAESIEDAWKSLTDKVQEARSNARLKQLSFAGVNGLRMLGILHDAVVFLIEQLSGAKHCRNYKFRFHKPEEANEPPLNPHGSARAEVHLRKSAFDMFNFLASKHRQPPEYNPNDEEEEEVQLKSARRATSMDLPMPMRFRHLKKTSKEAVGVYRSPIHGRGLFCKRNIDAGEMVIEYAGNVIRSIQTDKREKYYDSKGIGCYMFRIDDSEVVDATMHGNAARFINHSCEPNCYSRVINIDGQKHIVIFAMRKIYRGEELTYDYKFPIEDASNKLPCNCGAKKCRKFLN

Usually inhibition stands for the share of the control response that was lost under treatment. A low value points to a response near the control. For orientation: DC50 means the concentration at which degradation of the target reaches its halfway point. Take `CCc1c(C#N)c(SC(C(N)=O)c2ccccc2)nc(N(C)CC(=O)NC)c1C#N` (stereo not drawn): the outcome in the assay with HCT-116 [1], in the assay on HCT-116 [5], with NCI-H1299 and in the assay with HCT-116 [11] was Active. Besides, the inhibition in [2], in assay [6] and in assay [9] was below 20% in each case. The “inhibition (INH)” value in the assay on MDA-MB-468 [3] and in the assay on HCT-116 [8] was below 50% throughout. In addition, the result in the assay with HCT-116 [4] and with MDA-MB-468 [7] was inactive. Besides, the 50% degradation concentration (DC50) in [10] was determined as 254 nM. In addition, in the assay with HCT-116 [12], the T1/2 is below 4 h.
